These results are taken from PMC9350903 (ACS chemical neuroscience, 2021).

The target in data set [1] is T1, CSF-1R (Rattus norvegicus, UniProt Q00495).
T1 sequence (Q00495 20-978): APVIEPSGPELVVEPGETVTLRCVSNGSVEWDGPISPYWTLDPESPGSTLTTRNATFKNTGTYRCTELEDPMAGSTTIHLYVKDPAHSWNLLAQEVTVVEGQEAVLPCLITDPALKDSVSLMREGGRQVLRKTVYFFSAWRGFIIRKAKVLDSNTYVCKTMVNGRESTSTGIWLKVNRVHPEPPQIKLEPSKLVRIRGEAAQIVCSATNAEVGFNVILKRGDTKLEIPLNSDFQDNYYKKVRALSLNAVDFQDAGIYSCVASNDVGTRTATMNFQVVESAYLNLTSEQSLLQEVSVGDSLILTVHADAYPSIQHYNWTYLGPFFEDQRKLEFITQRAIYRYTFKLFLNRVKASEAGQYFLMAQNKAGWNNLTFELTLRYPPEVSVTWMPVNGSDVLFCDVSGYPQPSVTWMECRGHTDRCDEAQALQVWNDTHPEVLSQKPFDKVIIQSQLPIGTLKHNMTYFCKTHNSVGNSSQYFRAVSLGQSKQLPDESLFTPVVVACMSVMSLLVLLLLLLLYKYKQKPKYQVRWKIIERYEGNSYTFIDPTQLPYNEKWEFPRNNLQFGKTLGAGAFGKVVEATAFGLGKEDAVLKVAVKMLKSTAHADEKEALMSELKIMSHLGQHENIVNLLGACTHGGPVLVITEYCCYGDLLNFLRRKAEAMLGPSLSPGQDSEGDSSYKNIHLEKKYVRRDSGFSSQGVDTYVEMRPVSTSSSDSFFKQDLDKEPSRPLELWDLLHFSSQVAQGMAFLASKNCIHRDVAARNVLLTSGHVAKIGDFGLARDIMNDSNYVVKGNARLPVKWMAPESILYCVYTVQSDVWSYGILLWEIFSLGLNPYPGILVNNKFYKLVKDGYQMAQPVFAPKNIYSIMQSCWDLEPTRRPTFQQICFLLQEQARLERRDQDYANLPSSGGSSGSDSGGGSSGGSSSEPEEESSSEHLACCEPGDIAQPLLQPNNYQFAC
Description: [^3H]CPPC autoradiography in intrastriatal LPS rat brain tissues. Format: binding. The following applies: ipsilateral hemisphere of 30-day LPS rat brain; 10 μM competitor; [^3H]CPPC 3 nM.

The next data set deals with c-kit. The following applies: cited from earlier work.
For data set [2] the following is noted: oral administration; non-human primates; cited from earlier work.
For data set [3], the system named is CSF-1R. As to conditions: cited from earlier work.

Consider `FC(F)(F)c1ccc(CNc2ccc(Cc3c[nH]c4ncc(Cl)cc34)cn2)cn1` [PLX3397, 5-((5-chloro-1H-pyrrolo[2,3-b]pyridin-3-yl)methyl)-N-((6-(trifluoromethyl)pyridin-3-yl)methyl)pyridin-2-amine], for which, at CSF-1R [1], the “inhibition of [^3H]CPPC binding” value worked out at 15%. Besides, in the data set on c-kit, the affinity for c-kit is recorded as 20 nM. In data set [2], the “presence in cerebrospinal fluid” value was “observed in cerebrospinal fluid, albeit at low concentrations”. In the data set on CSF-1R [3], the “affinity for CSF-1R” value is 10 nM.
